Source: US8524750B2, “(Pyrazol-3-yl)-1,3,4-thiadiazol-2-amine and (pyrazol-3-yl)-1,3,4-thiazol-2-amine compounds” (Glaxo Group Limited, priority 2009, dated 2013)
Values after ≈ are worked out from the molar mass of the structure shown. Values joined by “and” are separate entries in the source; they are usually repeats but may differ in a detail not shown here. Equal entries are not always repeated. Where two headings read alike, the source gives them in different places.

Key:
[1] = test system: Mycobacterium tuberculosis H37Rv; assay: Mycobacterium tuberculosis H37Rv Inhibition Assay (Whole Cell Assay); format: cell-based; details: ATCC 25618 / H37Rv, H37Rv strain (ATCC25618), Middlebrook 7H9, six days at 37° C., resazurin fluorescence after 48 hours
[2] = molecular target: T1, Mycobacterium tuberculosis InhA (Mycobacterium tuberculosis, UniProt P9WGR1); assay: Mycobacterium tuberculosis InhA Inhibition Assay (Enzyme Assay); format: biochemical; details: 5 nM InhA, 50 μM DDCoA, 50 μM NADH, PIPES buffer pH 6.8, initial velocities of NADH consumption
T1 construct: made in house; host or cells: E. coli
Protocol: Mycobacterium tuberculosis InhA Inhibition Assay (Enzyme Assay)
InhA is able to reduce 2-trans enoyl-CoA esters with concomitant oxidation of NADH to NAD^+. The assay format is based on the kinetic detection of NADH consumption.
Assay for InhA inhibition is carried out with mycobacterium recombinant protein expressed and purified form E. coli. Standard assay conditions for the determination of kinetic constants and inhibitors activity use 5 nM of InhA, 50 μM of Dodecenoyl-CoA synthesized and purified as described by Quernard et al (DDCoA) and 50 μM of NADH as substrates, and it is carried out in 30 mM PIPES buffer pH 6.8, containing 0.05% of BSA. […] Triclosan is used as positive control in every experiment. One μl of compounds is added to the wells containing 25 μl of the DDCoA+NADH mix, the reaction is started by adding 50 μl of the enzyme solution. Fluorescence from NADH is followed at room temperature during 20 minutes in a fluorescent plate reader (excitation at 340 nm; emission at 480 nm). IC50 values are determined using initial velocities of NADH consumption.
Quernard A, Sacchettini J C, Dessen A, et al. Enzymatic characterization of the target for isoniazid in Mycobacterium tuberculosis. Biochemistry 1995; 34:8235-41.

T1 sequence (P9WGR1 whole entry, looked up): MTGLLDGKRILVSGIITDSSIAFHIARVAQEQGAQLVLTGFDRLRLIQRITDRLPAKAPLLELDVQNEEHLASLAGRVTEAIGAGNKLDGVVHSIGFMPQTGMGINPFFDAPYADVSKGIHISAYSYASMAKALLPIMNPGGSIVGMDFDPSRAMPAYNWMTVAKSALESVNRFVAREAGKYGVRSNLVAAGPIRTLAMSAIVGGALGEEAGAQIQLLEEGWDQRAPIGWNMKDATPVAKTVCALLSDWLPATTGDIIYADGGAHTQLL

SMILES	MIC [1]	IC50 ([2]; read-out: IC50 value)	IC50 ([2]; IC50 value)
Cc1cc(C)n(C(C)c2nnc(Nc3ccn(Cc4c(F)cccc4Cl)n3)s2)n1 (racemic) [Example 28, N-{1-[(2-chloro-6-fluorophenyl)methyl]-1H-pyrazol-3-yl}-5-[1-(3,5-dimethyl-1H-pyrazol-1-yl)ethyl]-1,3,4-thiadiazol-2-amine]	≤ 1 µM	< 116 nM	
Cc1csc(C(C)(O)c2nnc(Nc3ccn(Cc4c(F)cccc4Cl)n3)s2)n1 (racemic) [Example 30, 1-[5-({1-[(2-chloro-6-fluorophenyl)methyl]-1H-pyrazol-3-yl}amino)-1,3,4-thiadiazol-2-yl]-1-(4-methyl-1,3-thiazol-2-yl)ethanol]	≤ 1 µM	< 111 nM	
Cc1ccn(C(C)c2nnc(Nc3ccn(Cc4c(F)cccc4Cl)n3)s2)n1 (racemic) [Example 38, N-{1-[(2-chloro-6-fluorophenyl)methyl]-1H-pyrazol-3-yl}-5-[1-(3-methyl-1H-pyrazol-1-yl)ethyl]-1,3,4-thiadiazol-2-amine]	≤ 1 µM	< 120 nM	
Cc1csc(C(C)(O)c2nnc(Nc3ccn(Cc4c(F)cccc4F)n3)s2)n1 (racemic) [Example 78, 1-[5-({1-[(2,6-difluorophenyl)methyl]-1H-pyrazol-3-yl}amino)-1,3,4-thiadiazol-2-yl]-1-(4-methyl-1,3-thiazol-2-yl)ethanol]	≤ 1 µM		< 115 nM
Cc1ccn([C@H](C)c2nnc(Nc3ccn(Cc4c(F)cccc4Cl)n3)s2)n1 (single isomer, unassigned) [Example 66]	1 to 4 µM (≈ 0.418 to 1.67 µg/mL)	< 120 nM	
Cc1ccn([C@@H](C)c2nnc(Nc3ccn(Cc4c(F)cccc4Cl)n3)s2)n1 (single isomer, unassigned) [Example 67]	1 to 4 µM (≈ 0.418 to 1.67 µg/mL)	< 120 nM	
Cc1cc(C)n([C@H](C)c2nnc(Nc3ccn(Cc4c(F)cccc4Cl)n3)s2)n1 (single isomer, unassigned) [Example 68]	> 10 µM	< 116 nM	
Cc1cc(C)n([C@@H](C)c2nnc(Nc3ccn(Cc4c(F)cccc4Cl)n3)s2)n1 (single isomer, unassigned) [Example 69]	1 to 4 µM (≈ 0.432 to 1.73 µg/mL)	< 116 nM	
Cc1csc([C@](C)(O)c2nnc(Nc3ccn(Cc4c(F)cccc4Cl)n3)s2)n1 (single isomer, unassigned) [Example 70]	≤ 1 µM	< 111 nM	
Cc1csc([C@@](C)(O)c2nnc(Nc3ccn(Cc4c(F)cccc4Cl)n3)s2)n1 (single isomer, unassigned) [Example 71]	1 to 4 µM (≈ 0.451 to 1.8 µg/mL)	< 111 nM	
Cc1csc([C@](C)(O)c2nnc(Nc3ccn(Cc4c(F)cccc4F)n3)s2)n1 (single isomer, unassigned) [Example 89]			4.6 nM and < 115 nM
Cc1csc([C@@](C)(O)c2nnc(Nc3ccn(Cc4c(F)cccc4F)n3)s2)n1 (single isomer, unassigned) [Example 90]	> 10 µM		115 to 230 nM
Cc1cc(C)n(C(C)c2nnc(Nc3ccn(Cc4ccccc4C(F)(F)F)n3)s2)n1 (stereo not drawn) [Example 1, 5-[1-(3,5-dimethyl-1H-pyrazol-1-yl)ethyl]-N-(1-{[2-(trifluoromethyl)phenyl]methyl}-1H-pyrazol-3-yl)-1,3,4-thiadiazol-2-amine]	4 to 10 µM (≈ 1.79 to 4.47 µg/mL)	< 112 nM	
Cc1cc(C)n(C(C)c2nnc(Nc3ccn(Cc4cc(Cl)ccc4Cl)n3)s2)n1 (stereo not drawn) [Example 2, N-{1-[(2,5-dichlorophenyl)methyl]-1H-pyrazol-3-yl}-5-[1-(3,5-dimethyl-1H-pyrazol-1-yl)ethyl]-1,3,4-thiadiazol-2-amine]	> 10 µM	< 112 nM	
Cc1cc(C)n(C(C)c2nnc(Nc3ccn(Cc4ccccc4Br)n3)s2)n1 (stereo not drawn) [Example 3, N-{1-[(2-bromophenyl)methyl]-1H-pyrazol-3-yl}-5-[1-(3,5-dimethyl-1H-pyrazol-1-yl)ethyl]-1,3,4-thiadiazol-2-amine]	1 to 4 µM (≈ 0.458 to 1.83 µg/mL)	< 109 nM	
Cc1ccn(C(C)c2nnc(Nc3ccn(Cc4cc(Cl)ccc4Cl)n3)s2)n1 (stereo not drawn) [Example 4, N-{1-[(2,5-dichlorophenyl)methyl]-1H-pyrazol-3-yl}-5-[1-(3-methyl-1H-pyrazol-1-yl)ethyl]-1,3,4-thiadiazol-2-amine]	4 to 10 µM (≈ 1.74 to 4.34 µg/mL)	< 115 nM	
Cc1ccn(C(C)c2nnc(Nc3ccn(Cc4ccccc4Br)n3)s2)n1 (stereo not drawn) [Example 5, N-{1-[(2-bromophenyl)methyl]-1H-pyrazol-3-yl}-5-[1-(3-methyl-1H-pyrazol-1-yl)ethyl]-1,3,4-thiadiazol-2-amine]	4 to 10 µM (≈ 1.78 to 4.44 µg/mL)	< 113 nM	
Cc1cc(C)n(C(C)c2nnc(Nc3ccn(Cc4ccccc4F)n3)s2)n1 (stereo not drawn) [Example 6, 5-[1-(3,5-dimethyl-1H-pyrazol-1-yl)ethyl]-N-{1-[(2-fluorophenyl)methyl]-1H-pyrazol-3-yl}-1,3,4-thiadiazol-2-amine]	1 to 4 µM (≈ 0.397 to 1.59 µg/mL)	< 126 nM	
Cc1cc(C)n(C(C)c2nnc(Nc3ccn(Cc4cccc(Cl)c4F)n3)s2)n1 (stereo not drawn) [Example 7, N-{1-[(3-chloro-2-fluorophenyl)methyl]-1H-pyrazol-3-yl}-5-[1-(3,5-dimethyl-1H-pyrazol-1-yl)ethyl]-1,3,4-thiadiazol-2-amine]	≤ 1 µM	< 116 nM	
Cc1cc(C)n(C(C)c2nnc(Nc3ccn(Cc4cc(C(F)(F)F)ccc4C(F)(F)F)n3)s2)n1 (stereo not drawn) [Example 8, N-(1-{[2,5-bis(trifluoromethyl)phenyl]methyl}-1H-pyrazol-3-yl)-5-[1-(3,5-dimethyl-1H-pyrazol-1-yl)ethyl]-1,3,4-thiadiazol-2-amine]	> 10 µM	< 97 nM	
Cc1cc(C)n(C(C)c2nnc(Nc3ccn(Cc4cc(F)ccc4C(F)(F)F)n3)s2)n1 (stereo not drawn) [Example 9, 5-[1-(3,5-dimethyl-1H-pyrazol-1-yl)ethyl]-N-(1-{[5-fluoro-2-(trifluoromethyl)phenyl]methyl}-1H-pyrazol-3-yl)-1,3,4-thiadiazol-2-amine]	> 10 µM	< 107 nM	
Cc1cc(C)n(C(C)c2nnc(Nc3ccn(Cc4cccc(F)c4F)n3)s2)n1 (stereo not drawn) [Example 10, N-{1-[(2,3-difluorophenyl)methyl]-1H-pyrazol-3-yl}-5-[1-(3,5-dimethyl-1H-pyrazol-1-yl)ethyl]-1,3,4-thiadiazol-2-amine]	≤ 1 µM	< 120 nM	
Cc1cc(C)n(C(C)c2nnc(Nc3ccn(Cc4cc(C(F)(F)F)ccc4Cl)n3)s2)n1 (stereo not drawn) [Example 11, N-(1-{[2-chloro-5-(trifluoromethyl)phenyl]methyl}-1H-pyrazol-3-yl)-5-[1-(3,5-dimethyl-1H-pyrazol-1-yl)ethyl]-1,3,4-thiadiazol-2-amine]	> 10 µM	< 104 nM	
Cc1cc(C)n(C(C)c2nnc(Nc3ccn(Cc4c(F)cccc4F)n3)s2)n1 (stereo not drawn) [Example 12, N-{1-[(2,6-difluorophenyl)methyl]-1H-pyrazol-3-yl}-5-[1-(3,5-dimethyl-1H-pyrazol-1-yl)ethyl]-1,3,4-thiadiazol-2-amine]	≤ 1 µM	< 120 nM	
Cc1ccn(C(C)c2nnc(Nc3ccn(Cc4cccc(C)c4F)n3)s2)n1 (stereo not drawn) [Example 13, N-{1-[(2-fluoro-3-methylphenyl)methyl]-1H-pyrazol-3-yl}-5-[1-(3-methyl-1H-pyrazol-1-yl)ethyl]-1,3,4-thiadiazol-2-amine]	≤ 1 µM	< 126 nM	
Cc1ccn(C(C)c2nnc(Nc3ccn(Cc4cccc(Cl)c4F)n3)s2)n1 (stereo not drawn) [Example 14, N-{1-[(3-chloro-2-fluorophenyl)methyl]-1H-pyrazol-3-yl}-5-[1-(3-methyl-1H-pyrazol-1-yl)ethyl]-1,3,4-thiadiazol-2-amine]	1 to 4 µM (≈ 0.418 to 1.67 µg/mL)	< 120 nM	
Cc1ccn(C(C)c2nnc(Nc3ccn(Cc4cccc(F)c4F)n3)s2)n1 (stereo not drawn) [Example 15, N-{1-[(2,3-difluorophenyl)methyl]-1H-pyrazol-3-yl}-5-[1-(3-methyl-1H-pyrazol-1-yl)ethyl]-1,3,4-thiadiazol-2-amine]	1 to 4 µM (≈ 0.401 to 1.61 µg/mL)	< 125 nM	
Cc1csc(C(C)c2nnc(Nc3ccn(Cc4cccc(F)c4F)n3)s2)n1 (stereo not drawn) [Example 16, N-{1-[(2,3-difluorophenyl)methyl]-1H-pyrazol-3-yl}-5-[1-(4-methyl-1,3-thiazol-2-yl)ethyl]-1,3,4-thiadiazol-2-amine]	1 to 4 µM (≈ 0.418 to 1.67 µg/mL)	< 119 nM	
Cc1cc([N+](=O)[O-])nn1Cc1nnc(Nc2ccn(Cc3c(Cl)cccc3Cl)n2)s1 [Example 65, N-{1-[(2,6-dichlorophenyl)methyl]-1H-pyrazol-3-yl}-5-[1-(5-methyl-3-nitro-1H-pyrazol-1-yl)methyl]-1,3,4-thiadiazol-2-amine]		> 1070 nM	
Cc1csc(C(C)(O)c2nnc(Nc3ccn(Cc4cccc(N)c4F)n3)s2)n1 (stereo not drawn) [Example 88, 1-[5-({1-[(3-amino-2-fluorophenyl)methyl]-1H-pyrazol-3-yl}amino)-1,3,4-thiadiazol-2-yl]-1-(4-methyl-1,3-thiazol-2-yl)ethanol]		< 116 nM	
